Measured values from patent US6355799B1, “Substituted benzene compounds, process for their preparation, and herbicidal and defoliant compositions containing them” (ISK Americas Incorporated, priority 1997, dated 2002).

Assays:
Format in all cases: in vivo
[1] = system: velvetleaf (Abutilon theophrasti, ABUTH); experiment: Post-emerge test, greenhouse herbicide activity screening; settings: post-emerge, 14 days after application, rating scale 0-100
Method in brief: (§1)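 Compounds in acetone were track-sprayed at 15–1000 g ai/ha: pre-emergence onto soil sown the previous day, then top-watered to incorporate and later bottom-watered; post-emergence onto 2–3 leaf plants with 0.25% v/v surfactant, bottom-watered only. Ratings on a 0–100 phytotoxicity scale were taken at day 14.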

[2] = system: barnyardgrass (Echinochloa crus-galli, ECHCG); experiment: as above; settings: post-emerge, 14 days after application, rating scale 0-100
Method in brief: as §1

[3] = system: sicklepod (Cassia obtusifolia, CASOB); experiment: as above; settings: post-emerge, 14 days after application, rating scale 0-100
Method in brief: as §1

[4] = system: ivyleaf morningglory (Ipomoea hederacea, IPOHE); experiment: as above; settings: post-emerge, 14 days after application, rating scale 0-100
Method in brief: as §1

[5] = system: large crabgrass (Digitaria sanguinalis, DIGSA); experiment: as above; settings: post-emerge, 14 days after application, rating scale 0-100
Method in brief: as §1

[6] = system: johnsongrass (Sorghum halepense, SORHA); experiment: as above; settings: post-emerge, 14 days after application, rating scale 0-100
Method in brief: as §1

[7] = system: green foxtail (Setaria viridis, SETVI); experiment: as above; settings: post-emerge, 14 days after application, rating scale 0-100
Method in brief: as §1

[8] = system: redroot pigweed (Amaranthus retroflexus, AMARE); experiment: as above; settings: post-emerge, 14 days after application
Method in brief: as §1

[9] = system: lambsquarters (Chenopodium album, CHEAL); experiment: as above; settings: post-emerge, 14 days after application, rating scale 0-100
Method in brief: as §1

[10] = system: field corn (Zea mays L., var. Dekalb 535, CORN); experiment: Post-emerge test, crop safety; settings: post-emerge, 14 days after application, rating scale 0-100
Method in brief: (§2)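 Compounds in acetone were track-sprayed at 15-1000 g ai/ha (187 l/ha) on sandy loam pots: pre-emerge one day after seeding, post-emerge at 2-3 leaf stage with 0.25% v/v non-ionic surfactant. Phytotoxicity was rated 14 days later on a 0 (no damage) to 100 (complete death) scale.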

[11] = system: upland rice (Oryza sp., var. Tebonnet, RICE); experiment: Post-emerge test, crop safety; settings: post-emerge, 14 days after application, rating scale 0-100
Method in brief: as §2

[12] = system: velvetleaf (Abutilon theophrasti, ABUTH); experiment: Pre-emerge test, greenhouse herbicide activity screening; settings: phytotoxicity rating 0-100, 14 days after application
Method in brief: as §2

[13] = system: barnyardgrass (Echinochloa crus-galli, ECHCG); experiment: as above; settings: phytotoxicity rating 0-100, 14 days after application
Method in brief: as §2

[14] = system: sicklepod (Cassia obtusifolia, CASOB); experiment: as above; settings: phytotoxicity rating 0-100, 14 days after application
Method in brief: as §2

[15] = system: ivyleaf morningglory (Ipomoea hederacea, IPOHE); experiment: as above; settings: phytotoxicity rating 0-100, 14 days after application
Method in brief: as §2

[16] = system: large crabgrass (Digitaria sanguinalis, DIGSA); experiment: as above; settings: phytotoxicity rating 0-100, 14 days after application
Method in brief: as §2

[17] = system: johnsongrass (Sorghum halepense, SORHA); experiment: as above; settings: phytotoxicity rating 0-100, 14 days after application
Method in brief: as §2

[18] = system: green foxtail (Setaria viridis, SETVI); experiment: as above; settings: phytotoxicity rating 0-100, 14 days after application
Method in brief: as §2

[19] = system: lambsquarters (Chenopodium album, CHEAL); experiment: as above; settings: phytotoxicity rating 0-100, 14 days after application
Method in brief: as §2

[20] = system: field corn (Zea mays L., var. Dekalb 535, CORN); experiment: Pre-emerge test, crop safety; settings: crop damage rating 0-100, 14 days after application
Method in brief: (§3)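 Fourteen days after spraying, crop and weed injury was graded visually from 0, no effect, to 100, every plant dead. Test substances were dissolved in acetone and applied at 15–1000 g ai/ha with a flat-fan nozzle. Application was either pre-emergence, one day after sowing, or post-emergence at the 2–3 leaf stage.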

[21] = system: upland rice (Oryza sp., var. Tebonnet, RICE); experiment: Pre-emerge test, crop safety; settings: crop damage rating 0-100, 14 days after application
Method in brief: as §3

[22] = system: redroot pigweed (Amaranthus retroflexus, AMARE); experiment: Pre-emerge test, greenhouse herbicide activity screening; settings: phytotoxicity rating 0-100, 14 days after application
Method in brief: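 Compounds in acetone were track-sprayed at 187 l/ha, 15–1000 g ai/ha, onto sandy loam pots. Pre-emerge seeds were sown one day before spraying, with surface watering afterwards. Post-emerge plants were at the 2–3 leaf stage and sprayed with 0.25% v/v non-ionic surfactant. Injury was rated 0–100 at 14 days.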

[23] = 63 g ai/ha, rating scale 0-100 (0 no damage, 100 complete death)
[24] = 250 g ai/ha, rating scale 0-100

COc1c(Cl)cc(F)c(-n2c(=O)cc(C(F)(F)F)n(C)c2=O)c1NC(=O)OCc1ccc(C)c(C)c1 [4-26]
phytotoxicity rating ABUTH ([1]; 63 g ai/ha): 100 | phytotoxicity rating ABUTH ([1]; 250 g ai/ha): 100 | phytotoxicity rating ECHCG ([2]; 63 g ai/ha): 10 | phytotoxicity rating ECHCG ([2]; 250 g ai/ha): 50 | phytotoxicity rating CASOB ([3]; 63 g ai/ha): 30 | phytotoxicity rating CASOB ([3]; 250 g ai/ha): 60 | phytotoxicity rating IPOHE ([4]; 63 g ai/ha): 100 | phytotoxicity rating IPOHE ([4]; 250 g ai/ha): 100 | phytotoxicity rating DIGSA ([5]; 63 g ai/ha): 20 | phytotoxicity rating DIGSA ([5]; 250 g ai/ha): 50 | phytotoxicity rating SORHA ([6]; 63 g ai/ha): 10 | phytotoxicity rating SORHA ([6]; 250 g ai/ha): 50 | phytotoxicity rating SETVI ([7]; 63 g ai/ha): 20 | phytotoxicity rating SETVI ([7]; 250 g ai/ha): 60 | phytotoxicity rating AMARE [8, 23]: 100 | phytotoxicity rating AMARE [8, 24]: 100 | phytotoxicity rating CHEAL ([9]; 63 g ai/ha): 90 | phytotoxicity rating CHEAL ([9]; 250 g ai/ha): 100 | phytotoxicity rating CORN (crop damage) ([10]; 63 g ai/ha): 5 | phytotoxicity rating CORN (crop damage) ([10]; 250 g ai/ha): 20 | phytotoxicity rating RICE (crop damage) ([11]; 63 g ai/ha): 15 | phytotoxicity rating RICE (crop damage) ([11]; 250 g ai/ha): 45 | Pre-emerge Herbicidal Activity ABUTH ([12]; 63 g ai/ha): 80 | Pre-emerge Herbicidal Activity ABUTH ([12]; 250 g ai/ha): 100 | Pre-emerge Herbicidal Activity ECHCG ([13]; 63 g ai/ha): 0 | Pre-emerge Herbicidal Activity ECHCG ([13]; 250 g ai/ha): 30 | Pre-emerge Herbicidal Activity CASOB ([14]; 63 g ai/ha): 0 | Pre-emerge Herbicidal Activity CASOB ([14]; 250 g ai/ha): 0 | Pre-emerge Herbicidal Activity IPOHE ([15]; 63 g ai/ha): 0 | Pre-emerge Herbicidal Activity IPOHE ([15]; 250 g ai/ha): 10 | Pre-emerge Herbicidal Activity DIGSA ([16]; 63 g ai/ha): 10 | Pre-emerge Herbicidal Activity DIGSA ([16]; 250 g ai/ha): 90 | Pre-emerge Herbicidal Activity SORHA ([17]; 63 g ai/ha): 0 | Pre-emerge Herbicidal Activity SORHA ([17]; 250 g ai/ha): 20 | Pre-emerge Herbicidal Activity SETVI ([18]; 63 g ai/ha): 75 | Pre-emerge Herbicidal Activity SETVI ([18]; 250 g ai/ha): 95 | Pre-emerge Herbicidal Activity CHEAL ([19]; 63 g ai/ha): 100 | Pre-emerge Herbicidal Activity CHEAL ([19]; 250 g ai/ha): 100 | Pre-emerge Herbicidal Activity CORN ([20]; 63 g ai/ha): 0 | Pre-emerge Herbicidal Activity CORN ([20]; 250 g ai/ha): 0 | Pre-emerge Herbicidal Activity RICE ([21]; 63 g ai/ha): 0 | Pre-emerge Herbicidal Activity RICE ([21]; 250 g ai/ha): 45 | Pre-emerge Herbicidal Activity AMARE ([22]; 63 g ai/ha): 70 | Pre-emerge Herbicidal Activity AMARE ([22]; 250 g ai/ha): 100

COc1c(Cl)cc(F)c(-n2c(=O)cc(C(F)(F)F)n(C)c2=O)c1NC(=O)Oc1ccccc1C(C)(C)C [4-27]
phytotoxicity rating ABUTH ([1]; 63 g ai/ha): 70 | phytotoxicity rating ABUTH ([1]; 250 g ai/ha): 100 | phytotoxicity rating ECHCG ([2]; 63 g ai/ha): 0 | phytotoxicity rating ECHCG ([2]; 250 g ai/ha): 0 | phytotoxicity rating CASOB ([3]; 63 g ai/ha): 20 | phytotoxicity rating CASOB ([3]; 250 g ai/ha): 40 | phytotoxicity rating IPOHE ([4]; 63 g ai/ha): 70 | phytotoxicity rating IPOHE ([4]; 250 g ai/ha): 80 | phytotoxicity rating DIGSA ([5]; 63 g ai/ha): 0 | phytotoxicity rating DIGSA ([5]; 250 g ai/ha): 0 | phytotoxicity rating SORHA ([6]; 63 g ai/ha): 0 | phytotoxicity rating SORHA ([6]; 250 g ai/ha): 0 | phytotoxicity rating SETVI ([7]; 63 g ai/ha): 0 | phytotoxicity rating SETVI ([7]; 250 g ai/ha): 10 | phytotoxicity rating AMARE [8, 23]: 60 | phytotoxicity rating AMARE [8, 24]: 80 | phytotoxicity rating CHEAL ([9]; 63 g ai/ha): 60 | phytotoxicity rating CHEAL ([9]; 250 g ai/ha): 100 | phytotoxicity rating CORN (crop damage) ([10]; 63 g ai/ha): 5 | phytotoxicity rating CORN (crop damage) ([10]; 250 g ai/ha): 10 | phytotoxicity rating RICE (crop damage) ([11]; 63 g ai/ha): 0 | phytotoxicity rating RICE (crop damage) ([11]; 250 g ai/ha): 10 | Pre-emerge Herbicidal Activity ABUTH ([12]; 63 g ai/ha): 80 | Pre-emerge Herbicidal Activity ABUTH ([12]; 250 g ai/ha): 100 | Pre-emerge Herbicidal Activity ECHCG ([13]; 63 g ai/ha): 0 | Pre-emerge Herbicidal Activity ECHCG ([13]; 250 g ai/ha): 0 | Pre-emerge Herbicidal Activity CASOB ([14]; 63 g ai/ha): 0 | Pre-emerge Herbicidal Activity CASOB ([14]; 250 g ai/ha): 30 | Pre-emerge Herbicidal Activity IPOHE ([15]; 63 g ai/ha): 20 | Pre-emerge Herbicidal Activity IPOHE ([15]; 250 g ai/ha): 50 | Pre-emerge Herbicidal Activity DIGSA ([16]; 63 g ai/ha): 0 | Pre-emerge Herbicidal Activity DIGSA ([16]; 250 g ai/ha): 0 | Pre-emerge Herbicidal Activity SORHA ([17]; 63 g ai/ha): 0 | Pre-emerge Herbicidal Activity SORHA ([17]; 250 g ai/ha): 0 | Pre-emerge Herbicidal Activity SETVI ([18]; 63 g ai/ha): 30 | Pre-emerge Herbicidal Activity SETVI ([18]; 250 g ai/ha): 50 | Pre-emerge Herbicidal Activity CHEAL ([19]; 63 g ai/ha): 80 | Pre-emerge Herbicidal Activity CHEAL ([19]; 250 g ai/ha): 100 | Pre-emerge Herbicidal Activity CORN ([20]; 63 g ai/ha): 0 | Pre-emerge Herbicidal Activity CORN ([20]; 250 g ai/ha): 0 | Pre-emerge Herbicidal Activity RICE ([21]; 63 g ai/ha): 10 | Pre-emerge Herbicidal Activity RICE ([21]; 250 g ai/ha): 50 | Pre-emerge Herbicidal Activity AMARE ([22]; 63 g ai/ha): 70 | Pre-emerge Herbicidal Activity AMARE ([22]; 250 g ai/ha): 100
